Reference: patent US6552009B2, “Compositions and methods of treating abnormal cell proliferation” (Gentrix LLC, priority 1998, dated 2003)

System: moderate to severe papular-pustular acne
Format: in vivo, human
Conditions: for skin irritation: human, in vivo
Method: This example compares therapeutically applied retinyl palmitate, retinoic acid, calcitriol, and combinations thereof in a cream at different concentrations with the effectiveness of the cream without any of the above compounds present in treating acne. The base cream used to prepare the experimental formulations is the commercially available […] cream. The different compounds at different concentrations were added to the cream and mixed very well. Sixty six volunteers were recruited and were randomly assigned to each of the groups. the subjects were selected on the basis of their having moderate to severe papular-pustular acne. Each group consisted of 3 males and 3 females. No other acne treatment was permitted during the period. Preparations were applied to the face in the morning and evening after washing the face with ordinary soap. Observations were made at time 0, 1, 4, and 8 weeks to assure that treatment was carried out according to direction. Judgments of “worse”, “no change”, “mild”, and “good” were made after 8 weeks of treatment.

Compound | improvement in treating acne versus lower concentrations (concentrations at about 1.5% and more) | skin irritation
CCCCCCCCCCCCCCCC(=O)OC/C=C(C)/C=C/C=C(C)/C=C/C1=C(C)CCCC1(C)C [retinyl palmitate] | remarkable improvement over lower concentrations | did not
C=C1/C(=C\C=C2/CCC[C@]3(C)[C@@H]([C@H](C)CCCC(C)(C)O)CC[C@@H]23)C[C@@H](O)C[C@@H]1O [calcitriol, reference compound] |  | caused skin irritation
CC1=C(/C=C/C(C)=C/C=C/C(C)=C/C(=O)O)C(C)(C)CCC1 [retinoic acid, reference compound] |  | caused skin irritation
CC1=C(/C=C/C(C)=C/C=C/C(C)=C/CO)C(C)(C)CCC1=O [4-oxo-retinol] |  | did not
